Test results taken from publication PMC12730265, “Combinatorial Antimicrobial Effects of Imidazolium-Based Ionic Liquids and Antifungals on Model Fungal Organisms” (Biomolecules, 2025).
Read-outs that look alike come from different tables or passages of the source.

How the values were obtained:
Assay type in all cases: cell-based
[1] = tested on: S. cerevisiae; assay: Kirby–Bauer disk diffusion assay on IL-containing YPD plates; conditions: 100 = no growth on plate
Procedure: (§1) Assessment of fungal growth on YPD plates with AFs + ILs served as an indicator for the combined efficacy of treatment of ILs and AFs. YPD agar plates were made with addition of increasing concentrations of [HMIM]Cl at 0, 2.5, 6.25, and 25 mM or [OMIM]Cl at 0, 0.25, 0.625, and 2.5 mM. Plates solidified and dried on bench for 24 h before use. IN total, 400 μL of S. cerevisiae or C. albicans liquid culture at mid-log phase OD600 0.5 was spread using sterile glass beads to achieve even distribution. Following addition of culture, the plates were allowed to dry for 30 min before the addition of antifungal disks. Antifungal-infused disks were prepared using the stock solutions of solubilized antibiotics; 15 μL of each of the 4 azole antifungals at stock concentrations was pipetted onto a sterile 6 mm cellulose disk (BD). […] After plate drying was complete, sterile forceps were used to transfer the disks to the media, and the plate was grown upright in an incubator overnight at 30 °C. The following day, photographs were taken of the plates to visualize the zone of inhibition (ZOI) created by the combined treatment. Adobe Illustrator 2023 CC was used to perform digital measurements of ZOI diameters.
(§2) To assess the potential for combinatorial effects of ILs and AFs in yeast, Kirby–Bauer disk diffusion assays were performed for C. albicans and S. cerevisiae for [HMIM]Cl and [OMIM]Cl with all four AFs. […] The addition of 6 mm cellulose disks infused with equal volumes of solubilized AFs to the plates occurred after plating of C. albicans or S. cerevisiae, allowing for growth for 48 h at 23 °C, at which point the plates were evaluated for the establishment of zones of inhibition (ZOI). Digital pictures were acquired of all plates, and measurements of ZOI diameter were performed digitally as described in the Methods. […] With progressively increasing amounts of both [HMIM]Cl and [OMIM]Cl, ZOIs increased for all Afs, including Fluconazole and Itraconazole, which appear to be ineffective without IL in the Kirby–Bauer disk assay. Experiments were performed in triplicate and ZOIs were measured for all plates.
Similar experiments testing the combinatorial effects of [HMIM]Cl or [OMIM]Cl were performed on S. cerevisiae using Kirby–Bauer disk assays and quantified for changes in ZOI (Appendix Figure A1). ZOI measurements (mm) from both C. albicans and S. cerevisiae were compiled, and the averages are shown numerically as well as with shading and plotted in Figure 3. […] Finally, at intermediate concentrations of both [HMIM]Cl and [OMIM]Cl, a combinatorial effect of IL + AF was evident for all four AFs in S. cerevisiae, similar to observations in C. albicans.

[2] = tested on: S. pombe; assay: MIC50 by microbroth dilution; conditions: Schizosaccharomyces pombe
Procedure: (§3) A single colony was picked from each streak to prepare overnight in 5 mL fresh YPD broth and placed into a tilted rotating incubator set at 30 °C and 40 rpm overnight. After ~16–20 h, a fresh dilution in media (1:200) was made and used for the experiment. […] Finally, diluted culture was added to each well of a sterile 96-well plate containing serially diluted aliquots of each RTIL to a total volume of 100 µL. The plate was incubated at 30 °C overnight with shaking for 24 and 48 h. At both timepoints, the yeast was manually resuspended in the plate by pipetting and we measured the OD600 using a Spectramax M5 multimode plate reader (Molecular Devices, San Jose, CA, USA).
(§4) The four species of yeast tested included three common lab strains of non-pathogenic yeast strains, S. boulardii, S. cerevisiae, and S. pombe, and one common human pathogen, C. albicans.

[3] = tested on: S. boulardii; assay: MIC50 by microbroth dilution; conditions: Saccharomyces cerevisiae
Procedure: as §3, §4

[4] = tested on: C. albicans; assay: MIC50 by microbroth dilution; conditions: Candida albicans, 48 h
Procedure: as §3, §4

[5] = tested on: S. cerevisiae; assay: MIC50 by microbroth dilution; conditions: Saccharomyces cerevisiae
Procedure: as §3, §4

[6] = tested on: C. albicans; assay: Kirby–Bauer disk diffusion assay on IL-containing YPD plates; conditions: for inhibition of C. albicans growth around disk: absence of added IL
Procedure: as §1, §2

[7] = 50% growth after 48 h in YPD media, OD600, read-out: MIC50

MIC50 [2, 7]	MIC50 [3, 7]	MIC50 [4, 7]	MIC50 [5, 7]	Structure (SMILES)	Zone of inhibition (ZOI) diameter ([1]; [HMIM]Cl 0 mM in plate)	Zone of inhibition (ZOI) diameter ([1]; [HMIM]Cl 2.5 mM in plate)	Zone of inhibition (ZOI) diameter ([1]; [HMIM]Cl 6.25 mM in plate)	Zone of inhibition (ZOI) diameter ([1]; [HMIM]Cl 25 mM in plate)	Zone of inhibition (ZOI) diameter ([1]; [OMIM]Cl 0 M in plate)	Zone of inhibition (ZOI) diameter ([1]; [OMIM]Cl 0.25 mM in plate)	Zone of inhibition (ZOI) diameter ([1]; [OMIM]Cl 0.625 mM in plate)	Zone of inhibition (ZOI) diameter ([1]; [OMIM]Cl 2.5 mM in plate)	Zone of inhibition (ZOI) diameter ([6]; [HMIM]Cl 0 mM in plate)	Zone of inhibition (ZOI) diameter ([6]; [HMIM]Cl 2.5 mM in plate)	Zone of inhibition (ZOI) diameter ([6]; [HMIM]Cl 6.25 mM in plate)	Zone of inhibition (ZOI) diameter ([6]; [HMIM]Cl 25 mM in plate)	Zone of inhibition (ZOI) diameter ([6]; [OMIM]Cl 0 M in plate)	Zone of inhibition (ZOI) diameter ([6]; [OMIM]Cl 0.25 mM in plate)	Zone of inhibition (ZOI) diameter ([6]; [OMIM]Cl 0.625 mM in plate)	Zone of inhibition (ZOI) diameter ([6]; [OMIM]Cl 2.5 mM in plate)	also measured
0.5 µg/mL	0.5 µg/mL	1 µg/mL	0.5 µg/mL	CC(=O)N1CCN(c2ccc(OCC3COC(Cn4ccnc4)(c4ccc(Cl)cc4Cl)O3)cc2)CC1 (stereo not shown) [Ketoconazole]	25 mm	27.33 mm	63 mm	100 mm	25 mm	29.67 mm	57.33 mm	100 mm	13.67 mm	17 mm	29 mm	47.67 mm	13.67 mm	19.33 mm	28 mm	57.33 mm	inhibition of C. albicans growth around disk [6]: minimal inhibition
0.5 µg/mL	0.5 µg/mL	1 µg/mL	0.5 µg/mL	CCC(C)n1ncn(-c2ccc(N3CCN(c4ccc(OCC5COC(Cn6cncn6)(c6ccc(Cl)cc6Cl)O5)cc4)CC3)cc2)c1=O (stereo not shown) [Itraconazole]	8 mm	9.33 mm	14 mm	100 mm	8 mm	9 mm	21.67 mm	100 mm	0 mm	0 mm	12.67 mm	16 mm	0 mm	0 mm	16.33 mm	26.33 mm	inhibition of C. albicans growth around disk [6]: no inhibition
–	–	–	–	CCn1cc[n+](C)c1 [[EMIM]Cl, 1-ethyl-3-methylimidazolium chloride]	–	–	–	–	–	–	–	–	–	–	–	–	–	–	–	–	MIC50 ([2]; 48 h): 50 mM; MIC50 ([3]; 48 h): 25 mM; MIC50 [4]: > 100 mM; MIC50 ([5]; 48 h): 50 mM
4 µg/mL	4 µg/mL	8 µg/mL	4 µg/mL	OC(Cn1cncn1)(Cn1cncn1)c1ccc(F)cc1F [Fluconazole]	34 mm	36 mm	43.33 mm	100 mm	34 mm	37.33 mm	69 mm	100 mm	0 mm	0 mm	31.33 mm	47.33 mm	0 mm	0 mm	29.33 mm	70.33 mm	inhibition of C. albicans growth around disk [6]: no inhibition
